The structures appear in SMILES notation. Some results are limits rather than exact numbers.

Ten compounds from patent US12209102B2, “Heterocyclic compounds and uses thereof” (Kumquat Biosciences Inc., priority 2022, dated 2025) can be followed below.

One assay concerns the target T1, K-Ras G12D (Homo sapiens, UniProt P01116, G12D).
T1 construct: made in house; host or cells: E. coli BL21 (DE3)
The assay can be described thus: HTRF resonance energy transfer assay, K-Ras G12D / SOS1 interaction. The note with it: HTRF assay of Example 5; read-out: IC50 against K-Ras G12D. In kind it is biochemical. A digest of the protocol: (§1)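 Buffer about 5 mM HEPES pH 7.4 with ~150 mM NaCl, ~1 mM DTT, 0.05% BSA, 0.0025% (v/v) Igepal. Protein constructs used at molarity matching the IC50 range studied (e.g. ~500 nM). FRET between tagged K-Ras and hSOS1 measured after short incubation.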

Another assay has as its target T2, K-Ras G12S (Homo sapiens, UniProt P01116, G12S).
T2 construct: made in house; host or cells: E. coli BL21 (DE3)
The assay can be described thus: HTRF resonance energy transfer assay, K-Ras G12S / SOS1 interaction. The class given is biochemical. As to conditions: HTRF assay of Example 5; read-out: IC50 against K-Ras G12S. The method, boiled down: as §1
In general terms: TR-FRET usually uses a lanthanide donor and a delayed reading to cut background.

The target of the next assay is T3, K-Ras G12V (Homo sapiens, UniProt P01116, G12V).
T3 construct: made in house; host or cells: E. coli BL21 (DE3)
The assay can be described thus: HTRF resonance energy transfer assay, K-Ras G12V / SOS1 interaction. In kind it is biochemical. As to conditions: HTRF assay of Example 5; read-out: IC50 against K-Ras G12V. The method, boiled down:
as §1

The target of the next assay is T4, K-Ras WT (Homo sapiens, UniProt P01116).
T4 construct: made in house; host or cells: E. coli BL21 (DE3)
The assay can be described thus: HTRF resonance energy transfer assay, K-Ras WT / SOS1 interaction. The class given is biochemical. The note with it: HTRF assay of Example 5; read-out: IC50 against K-Ras WT. The method, boiled down: as §1

For the next assay, the system named is A549 cells. The assay can be described thus: Ras cellular assay, growth of cells with K-Ras G12S mutation (CellTiter-Glo). As to conditions: Homo sapiens, cell growth, Example 9, G12S mutation, read-out: IC50 against A549 cells. In kind it is cell-based. Here is the method: For example, this assay can be also used to assess a selective growth inhibition of a mutant Ras protein relative to a wildtype, or relative to a different mutant Ras protein.
A549 (ATCC CCL-185) and LS123 (ATCC CCL-255) cell lines comprise a G12S mutation and can be used to assess Ras cellular signaling in vitro, e.g., in response to the compounds herein. A549 culture medium is prepared with RPMI-1640 and 10% heat-inactivated FBS. LS123 culture medium is prepared with RPMI-1640 and 10% heat-inactivated FBS. A CellTiter-Glo (CTG) luminescent based assay (Promega) is used to assess growth of the cells, as a measurement of the ability of the compounds herein to inhibit Ras signaling in the cells. The cells (e.g., 800 per well) are seeded in their respective culture medium in standard tissue culture-treated 384-well format plates (Falcon #08-772-116) or ultra-low attachment surface 384-well format plates (S-Bio #MS-9384WZ). The day after plating, cells are treated with a dilution series (e.g., a 10 point 3-fold dilution series) of the compounds herein (e.g., approximately 40 μL final volume per well). Cell viability can be monitored (e.g., approximately 6 days later) according to the manufacturer's recommended instructions, where the CellTiter-Glo reagent is added (e.g., approximately 10 μL), vigorously mixed, covered, and placed on a plate shaker (e.g., approximately for 20 min) to ensure sufficient cell lysis prior to assessment of luminescent signal. The IC50 values are determined using the four parameter fit. The resulting IC50 value is a measurement of the ability of the compounds herein to reduce cell growth of Ras-driven cells (e.g., tumor cell lines) in vitro and/or in vivo.

The subject of a further assay is SW620 cells. The assay can be described thus: Ras cellular assay, growth of cells with K-Ras G12V mutation (CellTiter-Glo). As to conditions: Homo sapiens, SW-620; cell growth, Example 9, G12V mutation; read-out: IC50 against SW620 cells. The class given is cell-based. The method, boiled down: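 IC50 values came from a four-parameter fit of CellTiter-Glo viability, read roughly 6 days after dosing with e.g. a 10-point threefold dilution series. G12V-mutant SW620 cells (e.g. 800 per well) had been plated the previous day in RPMI-1640/10% heat-inactivated FBS, on tissue culture-treated or ultra-low attachment plates.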
Background: ATP-based viability assays read luminescence as a measure of living cells.

T4 sequence (P01116 1-188 isoform P01116-2): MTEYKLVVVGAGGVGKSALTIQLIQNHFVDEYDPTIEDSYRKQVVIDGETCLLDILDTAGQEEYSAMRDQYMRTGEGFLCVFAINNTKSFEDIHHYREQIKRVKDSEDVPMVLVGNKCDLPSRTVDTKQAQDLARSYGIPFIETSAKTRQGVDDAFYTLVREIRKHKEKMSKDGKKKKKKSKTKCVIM
T1 sequence (P01116 1-188 isoform P01116-2 G12D): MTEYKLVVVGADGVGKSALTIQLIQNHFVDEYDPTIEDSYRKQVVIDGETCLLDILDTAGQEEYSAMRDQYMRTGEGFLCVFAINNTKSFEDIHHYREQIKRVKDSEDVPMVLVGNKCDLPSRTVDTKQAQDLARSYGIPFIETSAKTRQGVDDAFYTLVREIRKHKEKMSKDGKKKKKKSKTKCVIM
T3 sequence (P01116 1-188 isoform P01116-2 G12V): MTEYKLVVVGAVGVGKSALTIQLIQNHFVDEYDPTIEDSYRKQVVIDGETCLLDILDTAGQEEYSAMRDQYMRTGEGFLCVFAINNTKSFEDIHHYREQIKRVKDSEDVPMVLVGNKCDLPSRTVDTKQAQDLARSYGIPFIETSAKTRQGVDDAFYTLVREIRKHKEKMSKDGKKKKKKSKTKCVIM
T2 sequence (P01116 1-188 isoform P01116-2 G12S): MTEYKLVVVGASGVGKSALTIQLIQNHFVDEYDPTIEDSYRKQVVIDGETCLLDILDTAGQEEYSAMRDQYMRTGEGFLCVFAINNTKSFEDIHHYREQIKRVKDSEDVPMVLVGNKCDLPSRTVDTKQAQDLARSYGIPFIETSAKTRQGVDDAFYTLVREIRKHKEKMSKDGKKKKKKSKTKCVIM

For orientation: IC50 means the concentration that gives 50% inhibition. On to `N#Cc1c(N)sc2c(F)ccc(-c3c(Cl)c4c5c(nc(OC[C@@]67CCCN6C[C@H](F)C7)nc5c3F)N(C3CCCN(C=O)CC3)CCO4)c12` (stereo partly drawn) [Compound 601, 2-amino-4-(8-chloro-10-fluoro-2-(((2R,7aS)-2-fluorotetrahydro-1H-pyrrolizin-7a(5H)-yl)methoxy)-4-(1-formylazepan-4-yl)-5,6-dihydro-4H-[1,4]oxazepino[5,6,7-de]quinazolin-9-yl)-7-fluorobenzo[b]thiophene-3-carbonitrile], for which the IC50 at K-Ras G12D is less than 100 nM; at K-Ras G12S it was less than 100 nM; on K-Ras G12V, less than 100 nM; on K-Ras WT it was less than 100 nM; with A549 cells, less than 5000 nM; in the assay with SW620 cells, less than 5000 nM.
As to `CC1(C)CCC(N2CCOc3c(Cl)c(-c4ccc(F)c5sc(N)c(C#N)c45)c(F)c4nc(OC[C@@]56CCCN5C[C@H](F)C6)nc2c34)CO1` (stereo partly drawn) [Compound 603, 2-amino-4-(8-chloro-4-(6,6-dimethyltetrahydro-2H-pyran-3-yl)-10-fluoro-2-(((2R,7aS)-2-fluorotetrahydro-1H-pyrrolizin-7a(5H)-yl)methoxy)-5,6-dihydro-4H-[1,4]oxazepino[5,6,7-de]quinazolin-9-yl)-7-fluorobenzo[b]thiophene-3-carbonitrile], the IC50 at K-Ras G12D is less than 100 nM; at K-Ras G12S it was less than 100 nM; on K-Ras G12V it was less than 100 nM; on K-Ras WT it was less than 100 nM; in the assay on A549 cells, less than 5000 nM; in the assay on SW620 cells it was less than 5000 nM.
For `N#Cc1c(N)sc2c(F)ccc(-c3c(Cl)c4c5c(nc(OC[C@@]67CCCN6C[C@H](F)C7)nc5c3F)N(C3CCC(=C(F)F)C3)CCO4)c12` (stereo partly drawn) [Compound 605, 2-amino-4-(8-chloro-4-(3-(difluoromethylene)cyclopentyl)-10-fluoro-2-(((2R,7aS)-2-fluorotetrahydro-1H-pyrrolizin-7a(5H)-yl)methoxy)-5,6-dihydro-4H-[1,4]oxazepino[5,6,7-de]quinazolin-9-yl)-7-fluorobenzo[b]thiophene-3-carbonitrile], the IC50 on K-Ras G12S is less than 100 nM; on K-Ras G12V, less than 100 nM; on K-Ras WT, less than 100 nM; with A549 cells, less than 5000 nM; in the assay on SW620 cells, less than 5000 nM.
Take `CC(=O)NC1CC(N2CCOc3c(Cl)c(-c4ccc(F)c5sc(N)c(C#N)c45)c(F)c4nc(OC[C@@]56CCCN5C[C@H](F)C6)nc2c34)C1` (stereo partly drawn) [Compound 623, N-(3-(9-(2-amino-3-cyano-7-fluorobenzo[b]thiophen-4-yl)-8-chloro-10-fluoro-2-(((2R,7aS)-2-fluorotetrahydro-1H-pyrrolizin-7a(5H)-yl)methoxy)-5,6-dihydro-4H-[1,4]oxazepino[5,6,7-de]quinazolin-4-yl)cyclobutyl)acetamide]: the IC50 at K-Ras G12D is less than 100 nM; at K-Ras G12S, less than 100 nM; on K-Ras G12V it was less than 100 nM; on K-Ras WT, less than 100 nM; in the assay on A549 cells, less than 5000 nM; in the assay with SW620 cells, less than 5000 nM.
For `N#CCC(=O)N1CCC(N2CCOc3c(Cl)c(-c4ccc(F)c5sc(N)c(C#N)c45)c(F)c4nc(OC[C@@]56CCCN5C[C@H](F)C6)nc2c34)C1` (stereo partly drawn) [Compound 626, 2-amino-4-(8-chloro-4-(1-(2-cyanoacetyl)pyrrolidin-3-yl)-10-fluoro-2-(((2R,7aS)-2-fluorotetrahydro-1H-pyrrolizin-7a(5H)-yl)methoxy)-5,6-dihydro-4H-[1,4]oxazepino[5,6,7-de]quinazolin-9-yl)-7-fluorobenzo[b]thiophene-3-carbonitrile], the IC50 is less than 100 nM at K-Ras G12D; less than 100 nM on K-Ras G12S; less than 100 nM on K-Ras G12V; less than 100 nM on K-Ras WT; less than 5000 nM with A549 cells; less than 5000 nM with SW620 cells.
With `C[C@H]1CN(C23CC(C2)C3)c2nc(OC[C@@]34CCCN3C[C@H](F)C4)nc3c(F)c(-c4ccc(F)c5sc(N)c(C#N)c45)c(Cl)c(c23)O1` [Compound 687, 2-amino-4-((6S)-4-(bicyclo[1.1.1]pentan-1-yl)-8-chloro-10-fluoro-2-(((2R,7aS)-2-fluorotetrahydro-1H-pyrrolizin-7a(5H)-yl)methoxy)-6-methyl-5,6-dihydro-4H-[1,4]oxazepino[5,6,7-de]quinazolin-9-yl)-7-fluorobenzo[b]thiophene-3-carbonitrile], the IC50 is less than 100 nM on K-Ras G12D; less than 100 nM on K-Ras G12S; less than 100 nM at K-Ras WT; less than 5000 nM with A549 cells; less than 5000 nM in the assay with SW620 cells.
Take `N#Cc1c(N)sc2c(F)ccc(-c3c(Cl)c4c5c(nc(OC[C@@]67CCCN6C[C@H](F)C7)nc5c3F)N(C3CC(NC(=O)C(F)Cl)C3)CCO4)c12` (stereo partly drawn) [Compound 724, N-(3-(9-(2-amino-3-cyano-7-fluorobenzo[b]thiophen-4-yl)-8-chloro-10-fluoro-2-(((2R,7aS)-2-fluorotetrahydro-1H-pyrrolizin-7a(5H)-yl)methoxy)-5,6-dihydro-4H-[1,4]oxazepino[5,6,7-de]quinazolin-4-yl)cyclobutyl)-2-chloro-2-fluoroacetamide]: the IC50 was less than 100 nM on K-Ras G12D; less than 100 nM on K-Ras G12S; less than 100 nM at K-Ras WT; less than 5000 nM with A549 cells; less than 5000 nM in the assay on SW620 cells.
As to `CCC1CC(N2CCOc3c(Cl)c(-c4ccc(F)c5sc(N)c(C#N)c45)c(F)c4nc(OC[C@@]56CCCN5C[C@H](F)C6)nc2c34)CCO1` (stereo partly drawn) [Compound 903, 2-amino-4-(8-chloro-4-(2-ethyltetrahydro-2H-pyran-4-yl)-10-fluoro-2-(((2R,7aS)-2-fluorotetrahydro-1H-pyrrolizin-7a(5H)-yl)methoxy)-5,6-dihydro-4H-[1,4]oxazepino[5,6,7-de]quinazolin-9-yl)-7-fluorobenzo[b]thiophene-3-carbonitrile], the IC50 at K-Ras G12S was less than 100 nM; on K-Ras G12V, less than 100 nM; on K-Ras WT, less than 100 nM; in the assay on A549 cells, less than 5000 nM; in the assay on SW620 cells, less than 5000 nM.
With `C[C@H](Oc1nc2c3c(c(Cl)c(-c4ccc(F)c5sc(N)c(C#N)c45)c(F)c3n1)OCCN2C1CCOCC1)[C@@H]1CCCN1C` [Compound 904, 2-amino-4-(8-chloro-10-fluoro-2-((S)-1-((S)-1-methylpyrrolidin-2-yl)ethoxy)-4-(tetrahydro-2H-pyran-4-yl)-5,6-dihydro-4H-[1,4]oxazepino[5,6,7-de]quinazolin-9-yl)-7-fluorobenzo[b]thiophene-3-carbonitrile], the IC50 on K-Ras G12S was less than 100 nM; on K-Ras G12V it was less than 100 nM; on K-Ras WT, less than 100 nM; with A549 cells it was less than 5000 nM; in the assay with SW620 cells, less than 5000 nM.
Consider `N#Cc1c(N)sc2c(F)ccc(-c3c(Cl)c4c5c(nc(OC[C@@]67CCCN6C[C@H](F)C7)nc5c3F)N(C3CCC(COC(F)F)C3)CCO4)c12` (stereo partly drawn) [Compound 933, 2-amino-4-(8-chloro-4-(3-((difluoromethoxy)methyl)cyclopentyl)-10-fluoro-2-(((2R,7aS)-2-fluorotetrahydro-1H-pyrrolizin-7a(5H)-yl)methoxy)-5,6-dihydro-4H-[1,4]oxazepino[5,6,7-de]quinazolin-9-yl)-7-fluorobenzo[b]thiophene-3-carbonitrile], for which the IC50 on K-Ras G12S is less than 100 nM; at K-Ras G12V, less than 100 nM; at K-Ras WT it was less than 100 nM; in the assay with A549 cells it was less than 5000 nM; in the assay on SW620 cells, less than 5000 nM.
